Tests used:
panel of 442 kinases [1] = biological target: T1, panel of 442 kinases (Homo sapiens, UniProt Q8NE63); format: binding; details: Compound Concentration 10 µM
T1 construct: purchased KINOMEscan
T1 sequence (Q8NE63 1-616): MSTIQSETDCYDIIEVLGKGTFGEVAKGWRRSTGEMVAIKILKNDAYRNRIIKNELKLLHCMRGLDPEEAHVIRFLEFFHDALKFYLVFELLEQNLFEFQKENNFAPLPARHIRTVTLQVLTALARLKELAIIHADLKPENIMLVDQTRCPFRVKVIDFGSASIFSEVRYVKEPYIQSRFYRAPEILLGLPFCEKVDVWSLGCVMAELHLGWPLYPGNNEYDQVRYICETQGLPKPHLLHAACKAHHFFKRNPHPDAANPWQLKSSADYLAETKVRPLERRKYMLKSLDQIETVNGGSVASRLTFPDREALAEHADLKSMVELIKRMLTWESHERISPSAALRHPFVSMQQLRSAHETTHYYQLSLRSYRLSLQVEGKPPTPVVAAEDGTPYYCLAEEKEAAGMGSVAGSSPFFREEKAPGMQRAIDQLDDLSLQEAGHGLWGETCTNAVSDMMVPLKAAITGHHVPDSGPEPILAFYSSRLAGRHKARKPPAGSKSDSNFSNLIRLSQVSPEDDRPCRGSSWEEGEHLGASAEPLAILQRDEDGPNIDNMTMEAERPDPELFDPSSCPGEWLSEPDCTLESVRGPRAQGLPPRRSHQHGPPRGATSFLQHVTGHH
Description: (§1) We assessed the selectivity of members of this scaffold using the KINOMEscan methodology across a near comprehensive panel of 442 kinases [[18,27]].

panel of 442 kinases [2] = biological target: T2, panel of 442 kinases (Homo sapiens, UniProt Q9P2K8, S808G); format: binding; details: Compound Concentration 10 µM
T2 construct: purchased KINOMEscan
T2 sequence (Q9P2K8 whole entry S808G): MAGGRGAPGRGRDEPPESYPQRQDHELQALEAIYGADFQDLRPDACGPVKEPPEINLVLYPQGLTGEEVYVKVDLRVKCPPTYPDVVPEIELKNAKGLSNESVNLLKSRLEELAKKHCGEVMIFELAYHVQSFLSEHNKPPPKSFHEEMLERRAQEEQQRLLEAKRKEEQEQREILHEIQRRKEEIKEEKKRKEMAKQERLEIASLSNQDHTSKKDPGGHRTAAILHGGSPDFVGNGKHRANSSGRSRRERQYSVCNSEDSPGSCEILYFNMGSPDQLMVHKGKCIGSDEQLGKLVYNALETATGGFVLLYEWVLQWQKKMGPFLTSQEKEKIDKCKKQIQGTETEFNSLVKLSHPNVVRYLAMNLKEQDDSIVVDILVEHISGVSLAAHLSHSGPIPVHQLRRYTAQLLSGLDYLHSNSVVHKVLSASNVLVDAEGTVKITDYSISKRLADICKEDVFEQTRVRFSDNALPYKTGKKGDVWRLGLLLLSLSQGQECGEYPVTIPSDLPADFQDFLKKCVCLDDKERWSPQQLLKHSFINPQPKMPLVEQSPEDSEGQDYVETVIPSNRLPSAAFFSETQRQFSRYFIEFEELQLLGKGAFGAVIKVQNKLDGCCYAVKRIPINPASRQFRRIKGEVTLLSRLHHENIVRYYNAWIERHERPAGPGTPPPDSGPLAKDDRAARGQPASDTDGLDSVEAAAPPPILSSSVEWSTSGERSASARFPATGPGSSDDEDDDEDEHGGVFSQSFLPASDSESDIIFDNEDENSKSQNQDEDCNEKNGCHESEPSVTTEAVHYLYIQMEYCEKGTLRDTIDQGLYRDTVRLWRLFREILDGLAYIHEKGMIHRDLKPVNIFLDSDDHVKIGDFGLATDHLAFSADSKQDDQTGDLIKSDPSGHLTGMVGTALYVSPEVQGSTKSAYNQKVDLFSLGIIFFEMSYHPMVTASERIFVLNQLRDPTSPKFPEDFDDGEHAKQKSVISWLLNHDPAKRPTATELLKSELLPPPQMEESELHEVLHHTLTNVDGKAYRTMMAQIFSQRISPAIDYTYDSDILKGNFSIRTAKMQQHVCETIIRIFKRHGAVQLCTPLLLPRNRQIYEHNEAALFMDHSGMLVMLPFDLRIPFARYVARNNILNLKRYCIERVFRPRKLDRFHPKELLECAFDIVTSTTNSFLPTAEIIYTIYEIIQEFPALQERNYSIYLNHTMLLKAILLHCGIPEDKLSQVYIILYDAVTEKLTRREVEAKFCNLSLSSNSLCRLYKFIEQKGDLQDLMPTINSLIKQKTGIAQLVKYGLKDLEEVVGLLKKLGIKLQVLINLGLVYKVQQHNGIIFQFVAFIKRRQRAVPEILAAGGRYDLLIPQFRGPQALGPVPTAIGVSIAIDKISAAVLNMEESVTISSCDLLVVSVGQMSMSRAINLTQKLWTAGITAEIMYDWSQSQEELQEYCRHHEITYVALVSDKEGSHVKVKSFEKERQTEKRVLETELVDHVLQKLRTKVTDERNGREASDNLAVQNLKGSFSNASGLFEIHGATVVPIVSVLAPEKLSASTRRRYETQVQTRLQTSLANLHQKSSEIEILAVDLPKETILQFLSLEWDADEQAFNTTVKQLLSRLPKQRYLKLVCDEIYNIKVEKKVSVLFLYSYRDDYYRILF
Description: as §1

Row | SMILES | KINOMEscan: HIPK4 (panel of 442 kinases [1]) | KINOMEscan: GCN2(Kin.Dom.2,S808G) (panel of 442 kinases [2])
1 | CCOc1cc(C(=O)N2CCC(N3CCN(C)CC3)CC2)ccc1Nc1ncc2c(n1)N(C1CCCC1)c1ccccc1C(=O)N2C [Compound 26] | 100 | 95
2 | COc1cc(C(=O)N2CCC(N3CCN(C)CC3)CC2)ccc1Nc1ncc2c(n1)N(C1CCCC1)c1ccccc1C(=O)N2C [Compound 25, 11-cyclopentyl-2-((2-methoxy-4-(4-(4-methylpiperazin-1-yl)piperidine-1-carbonyl)phenyl)amino)-5-methyl-5H-benzo[e]pyrimido[5,4-b][1,4]diazepin-6(11H)-one] | 87 | 100
3 | COc1cc(C(=O)N2CCC(N3CCN(C)CC3)CC2)ccc1Nc1ncc2c(n1)N1CCc3cccc(c31)C(=O)N2C [Compound 24] | 50 | 79
4 | COc1cc(C(=O)N2CCC(N3CCN(C)CC3)CC2)ccc1Nc1ncc2c(n1)N(C)c1ccccc1C(=O)N2C [15 (LRRK2-IN-1)] | 100 | 95
